pIC50: −log10 of the molar value. Like-named read-outs stand apart in the source and are kept apart here.
Key:
[1] = target: T1, human IBAT (Homo sapiens, UniProt Q12908); test: In vitro assay of IBAT-mediated uptake of [14C]-taurocholate (TC) in H14 cells; type: cell-based
T1 construct: expressed in transfected cells; host or cells: Baby hamster kidney (BHK) cells, clone H14
T1 sequence (Q12908 1-348): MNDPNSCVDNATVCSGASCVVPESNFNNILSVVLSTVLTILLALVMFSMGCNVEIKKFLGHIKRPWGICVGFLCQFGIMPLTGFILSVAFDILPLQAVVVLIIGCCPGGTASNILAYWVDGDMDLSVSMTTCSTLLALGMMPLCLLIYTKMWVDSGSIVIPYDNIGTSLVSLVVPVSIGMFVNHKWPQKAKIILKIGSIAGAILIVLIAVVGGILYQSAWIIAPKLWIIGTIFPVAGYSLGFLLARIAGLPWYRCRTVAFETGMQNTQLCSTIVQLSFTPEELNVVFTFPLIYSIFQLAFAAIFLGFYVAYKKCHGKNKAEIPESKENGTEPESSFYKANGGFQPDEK
Procedure, shortened: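 BHK cells stably expressing human IBAT (H14) were incubated 2 h at 37° C with compound and 3 μM final [14C]-taurocholate in DMEM (4.5 g/L glucose) plus 0.2% fatty acid-free BSA. After cold PBS washes, cell-associated radioactivity was measured by scintillation counting.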

[2] = test system: Rabbit Ileal brush border membranes; test: [3H]taurocholate uptake in rabbit brush border membrane vesicles (BBMV); type: biochemical; details: read-out: TC-uptake (BBMV) IC(50)
Description: [^3H]Taurocholate Uptake in Rabbit Brush Border Membrane Vesicles (BBMV)
Rabbit Ileal brush border membranes were prepared from frozen iheal mucosa by the calcium precipitation method describe by Malathi et al. (Reference: (1979) Biochimica Biophysica Acta, 554, 259). The method for measuring taurocholate was essentially as described by Kramer et al. (Reference: (1992) Biochimica Biophysica Acta, 1111, 93) except the assay volume was 200 μl instead of 100 μl.

[3] = target: ACAT; test: Acyl-CoA; cholesterol acyl transferase (ACAT), hamster liver microsomes; type: biochemical; details: read-out: ACAT (liver) IC(50)
Description: Acyl-CoA; Cholesterol Acyl Transferase (ACAT)
Hamster liver and rat intestinal microsomes were prepared from tissue as described previously (Reference: (1980) J. Biol. Chem. 255, 9098) and used as a source of ACAT enzyme. The assay consisted of a 2.0 ml incubation containing 24 μM Oleoyl-CoA (0.05 μCi) in a 50 mM sodium phosphate, 2 mM DTT ph 7.4 buffer containing 0.25% BSA and 200 μg of microsomal protein. The assay was initiated by the addition of oleoyl-CoA. The reaction went for 5 min at 37° C. and was terminated by the addition of 8.0 ml of chloroform/methanol (2:1). […] The chloroform phase was taken to dryness and then spotted on a silica gel 60 TLC plate and developed in hexane/ethyl ether (9:1). The amount of cholesterol ester formed was determined by measuring the amount of radioactivity incorporated into the cholesterol oleate spot on the TLC plate with a Packard instaimager.

[4] = test system: Serum Cholesterol; test: Determination of serum cholesterol (SER.CHOL, HDL-CHOL, TGI, VLDL+LDL), cholesterol-fed hamsters; type: in vivo, hamster; details: 0.2% Cpd. No. 25, mean (SEM)
Description: (§1) Determination of Serum Cholesterol (SER.CHOL, HDL-CHOL, TGI and VLDL+LDL)
(§2) Total serum cholesterol (SER.CHOL) was measured enzymatically using a commercial kit from Wako Fine Chemicals (Richmond, Va.); Cholesterol C11, Catalog No. 276-64909. HDL cholesterol (HDL-CHOL) was assayed using this same kit after precipitation of VLDL and LDL with Sigma Chemical Co. HDL Cholesterol reagent, Catalog No. 352-3 (dextran sulfate method). Total serum triglycerides (blanked) (TGI) were assayed enzymatically with Sigma Chemical Co. GPO-Trinder, Catalog No. 337-B. VLDL and LDL (VLDL+LDL) cholesterol concentrations were calculated as the difference between total and HDL cholesterol.

[5] = test system: Hepatic Cholesterol; test: Hepatic cholesterol concentration, cholesterol-fed hamsters; type: in vivo, hamster; details: 0.2% Cpd. No. 25, mean (SEM)
Description: Measurement of Hepatic Cholesterol Concentration (Hepatic CHOL)
Liver tissue was weighed and homogenized in chloroform:methanol (2:1). After homogenization and centrifugation the supernatant was separated and dried under nitrogen. The residue was dissolved in isopropanol and the cholesterol content was measured enzymatically, using a combination of cholesterol oxidase and peroxidase, as described by Allain, C. A., et al. (1974) Clin. Chem. 20, 470.

[6] = test system: Hepatic HMG CoA-Reductase; test: Hepatic HMG CoA-reductase activity, cholesterol-fed hamsters; type: in vivo, hamster; details: 0.2% Cpd. No. 25, mean (SEM)
Description: Measurement of Hepatic HMG CoA-Reductase Activity (HMG COA)
Hepatic microsomes were prepared by homogenizing liver samples in a phosphate/sucrose buffer, followed by centrifugal separation. The final pelleted material was resuspended in buffer and an aliquot was assayed for HMG CoA reductase activity by incubating for 60 minutes at 37° C. in the presence of ^14C-HMG-CoA (Dupont-NEN). The reaction was stopped by adding 6N HCl followed by centrifugation. An aliquot of the supernatant was separated, by thin-layer chromatography, and the spot corresponding to the enzyme product was scraped off the plate, extracted and radioactivity was determined by scintillation counting. (Reference: Akerlund, J. and Bjorkhem, I. (1990) J. Lipid Res. 31, 2159).

[7] = Rat Alzet minipump model: body, liver and fecal weight; type: in vivo; details: 20 MPL/DAY, mean (SEM)
[8] = test system: Serum Cholesterol; test: Determination of serum cholesterol, rat Alzet minipump model; type: in vivo; details: 20 MPL/DAY, mean (SEM)
Description: as §1, §2

## CCCC[C@]1(CC)CS(=O)(=O)c2cc(OC)ccc2[C@@H](c2ccccc2)[C@H]1O [Example 25, (3α,4β,5β) 3-Butyl-3-ethyl-4-hydroxy-8-methoxy-5-phenyl-2,3,4,5-tetrahydrobenzothiepine-1,1-dioxide]
[1]; H14 cells, Table 5, read-out: IC50 uM (In vitro Taurocholate Cell Uptake)
  IC50: 0.1 µM
[1]; Table 6, read-out: TC-uptake (H14 cells) IC(50)
  pIC50: 7.00
[2]
  pIC50: 6.10
[3]
  pIC50: 5.10
[4]
  HDL-CHOL (mg %): 76 (1) *A, B mg %
  SER.CHOL (mg %): 126 (2) mg %
  TGI (mg %): 175 (11) mg %
[4]; difference total minus HDL cholesterol
  VLDL + LDL: 50 (3)
[5]
  HEPATIC CHOL (mg/g): 1.9 (0.1) mg/g
[6]
  HMG COA (pm/mg/min.): 312.9 (37.5) pm/mg/min.
[7]
  LIVER WEIGHT (G): 14.6 (0.4) G
  WEIGHT (G) day 1: 307 (3) G
  WEIGHT (G) day 8: 310 (4) *A, B G
[8]
  SER.CHOL (mg %): 84 (3) mg %

— patent US6784201B2, “Benzothiepines having activity as inhibitors of ileal bile acid transport and taurocholate uptake” (G.D. Searle & Company, priority 1994, dated 2004)
